According to patent US11958861B2, “Spirocyclic lactams as JAK2 V617F inhibitors” (Incyte Corporation, priority 2021, dated 2024):
Where a name gives a salt, the structure may show the parent alone.

Experiments:
[1] = biological target: T1, pseudo-kinase domain (JH2, amino-acids 536-812) of human Wild Type JAK2 (Homo sapiens, UniProt O60674, F794H/W659A/W777A); experiment: JAK2 LanthaScreen JH2-WT Binding Assay; settings: 1 hour at 25° C.
T1 construct: pseudo-kinase domain (JH2, amino-acids 536-812 with 3 surface mutations W659A, W777A, F794H); purchased BPS Bioscience 79463; host or cells: baculovirus expression system
In short: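 IC50 values derive from four-parameter fits of LanthaScreen signal, measuring displacement of 50 nM fluorescent tracer from 0.145 nM biotinylated, baculovirus-expressed JH2 (536-812) detected by 0.25 nM streptavidin-Tb. Incubation lasts 1 hour at 25° C, pH 7.5.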

[2] = biological target: T2, pseudo-kinase domain (JH2, amino-acids 536-812) of human V617F mutant JAK2 (Homo sapiens, UniProt O60674, F794H/V617F/W659A/W777A); experiment: JAK2 LanthaScreen JH2-V617F Binding Assay; settings: 1 hour at 25° C.
T2 construct: pseudo-kinase domain (JH2, amino-acids 536-812 with 3 surface mutations W659A, W777A, F794H); purchased BPS Bioscience 79498; host or cells: baculovirus expression system
In short: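 Binding was measured as TR-FRET displacement of 50 nM tracer from 0.26 nM biotinylated His-Avi protein, incubated one hour at 25° C; IC50 from a four-parameter fit.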

[3] = biological target: T3, catalytic domain (JH1, amino acids 826-1132) of human JAK2 (Homo sapiens, UniProt O60674); experiment: JAK2 LanthaScreen JH1 Binding Assay; settings: 2 hours at 25° C.
T3 construct: catalytic domain (JH1, amino acids 826-1132) of human JAK2; purchased Carna Biosciences 08-445-20N; host or cells: baculovirus expression system
In short: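 Reaction held 1.5 nM biotinylated FLAG-JAK2 JH1, 50 nM tracer and 0.5 nM streptavidin-Tb in pH 7.5 Tris buffer; 2 mM ATP defined nonspecific binding.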

[4] = biological target: T4, catalytic domain (JH1, amino acids 808-1132) of human JAK2 (Homo sapiens, UniProt O60674); experiment: JAK2 HTRF Enzyme Activity Assay; format: biochemical; settings: ATP 30 μM, read-out: ENZ 30UMATP
T4 construct: catalytic domain (JH1, amino acids 808-1132) of human JAK2; His (N); purchased BPS Bioscience 40450; host or cells: baculovirus expression system
In short: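 IC50 values come from a four-parameter fit of HTRF signal (Eu-PY20 antibody/streptavidin-APC, EDTA-quenched). Reaction: 0.015 nM N-His JAK2 catalytic domain (baculovirus), 500 nM biotin-peptide, 30 μM or 1 mM ATP, Tris pH 7.5 buffer, 60 min, 25° C.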

T2 sequence (O60674 536-812 V617F/W659A/W777A/F794H): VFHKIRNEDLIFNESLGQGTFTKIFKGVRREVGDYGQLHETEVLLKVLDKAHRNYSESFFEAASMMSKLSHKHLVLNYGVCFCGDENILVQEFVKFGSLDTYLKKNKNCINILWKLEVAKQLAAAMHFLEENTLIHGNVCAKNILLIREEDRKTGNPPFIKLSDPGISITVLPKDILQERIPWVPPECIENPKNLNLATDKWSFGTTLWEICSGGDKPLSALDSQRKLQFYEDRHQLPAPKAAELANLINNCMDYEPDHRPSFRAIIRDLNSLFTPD
T4 sequence (O60674 808-1132): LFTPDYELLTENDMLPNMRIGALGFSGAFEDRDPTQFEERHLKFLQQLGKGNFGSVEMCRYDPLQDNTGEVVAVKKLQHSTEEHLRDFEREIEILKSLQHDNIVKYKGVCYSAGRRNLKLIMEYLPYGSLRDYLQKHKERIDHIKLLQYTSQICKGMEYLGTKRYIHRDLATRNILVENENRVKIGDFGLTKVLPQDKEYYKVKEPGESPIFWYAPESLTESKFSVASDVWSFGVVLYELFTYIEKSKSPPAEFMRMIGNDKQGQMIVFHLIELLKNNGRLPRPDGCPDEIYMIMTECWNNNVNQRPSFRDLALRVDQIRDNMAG
T3 sequence (O60674 826-1132): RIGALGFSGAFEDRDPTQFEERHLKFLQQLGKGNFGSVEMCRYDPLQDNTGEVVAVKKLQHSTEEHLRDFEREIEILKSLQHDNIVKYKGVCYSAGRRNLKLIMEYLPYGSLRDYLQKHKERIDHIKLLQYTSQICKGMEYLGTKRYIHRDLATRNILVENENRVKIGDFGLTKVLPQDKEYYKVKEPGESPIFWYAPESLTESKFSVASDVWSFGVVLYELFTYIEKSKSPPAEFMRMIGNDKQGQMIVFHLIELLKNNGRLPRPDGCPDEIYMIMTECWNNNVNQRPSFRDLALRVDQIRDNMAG
T1 sequence (O60674 536-812 W659A/W777A/F794H): as the sequence (O60674 536-812 V617F/W659A/W777A/F794H) above, with F82V counted along it

For `CN1C(=O)C2(Cc3ccccc3C2)c2c1cnc1[nH]c(-c3ccc(CN4CCC(S(C)(=O)=O)CC4)cc3)cc21` [Example 57, 6-Methyl-2-(4-((4-(methylsulfonyl)piperidin-1-yl)methyl)phenyl)-1′,3,3′,6-tetrahydro-7H-spiro[dipyrrolo[2,3-b:3′,2′-d]pyridine-8,2′-inden]-7-one], the IC50 [1] was 1250 to 2500 nM, the IC50 [2] was over 2500 nM and the IC50 [3] was over 2500 nM. For the same compound, the IC50 [4] was over 2500 nM.
`CN1C(=O)C2(CC3CCC(C2)N3c2ccncn2)c2c1cnc1[nH]c(-c3ccc(CN4CCC(S(C)(=O)=O)CC4)cc3)c(-c3ccccc3)c21` [Example 16, (1R,3r,5S)-6′-Methyl-2′-((4(4-(methylsulfonyl)piperidin-1-yl)methyl)phenyl)-1′-phenyl-8-(pyrimidin-4-yl)-3′,6′-dihydro-7′H-8-azaspiro[bicyclo[3.2.1]octane-3,8′-dipyrrolo[2,3-b:3′,2′-d]pyridin]-7′-one, trifluoroacetate salt] was tested, and the IC50 [1] was at most 100 nM, the IC50 [2] was at most 100 nM and the IC50 [3] was over 2500 nM. The IC50 [4] was over 2500 nM.
In the case of `CN1C(=O)C2(CCN(C3(CC#N)CCC3)CC2)c2c1cnc1[nH]c(-c3cnn(CC(F)(F)F)c3)c(-c3ccc4c(cnn4C)c3)c21` [Example 33, 2-(1-(6-Methyl-1-(1-methyl-1H-indazol-5-yl)-7-oxo-2-(1-(2,2,2-trifluoroethyl)-1H-pyrazol-4-yl)-6,7-dihydro-3H-spiro[dipyrrolo[2,3-b:3′,2′-d]pyridine-8,4′-piperidin]-1′-yl)cyclobutyl)acetonitrile, trifluoroacetate salt], the IC50 [1] is reported as at most 100 nM, the IC50 [2] is reported as at most 100 nM and the IC50 [3] is reported as 500 to 1250 nM. It also gave an IC50 [4] of 500 to 1250 nM.
With `O=C(O)C(F)(F)F.[2H]C([2H])([2H])N1C(=O)C2(CC3(CN(S(=O)(=O)CC)C3)C2)c2c1cnc1[nH]c(-c3cnn(CC)c3)c(-c3ccc(OC)cc3)c21` [Example 95, 2″-(1-Ethyl-1H-pyrazol-4-yl)-1-(ethylsulfonyl)-1″-(4-methoxyphenyl)-6″-(methyl-d3)-3″,6″-dihydro-7″H-dispiro[azetidine-3,1′-cyclobutane-3′,8″-dipyrrolo[2,3-b:3′,2′-d]pyridin]-7″-one, trifluoroacetate salt] the IC50 [1] was at most 100 nM, the IC50 [2] was at most 100 nM and the IC50 [3] was 500 to 1250 nM. For the same compound, the IC50 [4] was 500 to 1250 nM.
With `CN1C(=O)C2(CCN(CC3(CC#N)CC3)C2)c2c1cnc1[nH]c(-c3ccc4c(c3)OCC(=O)N4)c(-c3ccc4c(cnn4C)c3)c21` (racemic) [Example 67, 2-(1-((6-Methyl-1-(1-methyl-1H-indazol-5-yl)-7-oxo-2-(3-oxo-3,4-dihydro-2H-benzo[b][1,4]oxazin-7-yl)-6,7-dihydro-3H-spiro[dipyrrolo[2,3-b:3′,2′-d]pyridine-8,3′-pyrrolidin]-1′-yl)methyl)cyclopropyl)acetonitrile, trifluoroacetate salt] the IC50 [1] was at most 100 nM, the IC50 [2] was at most 100 nM and the IC50 [3] was over 2500 nM. The IC50 [4] was over 2500 nM.
In the case of `CN1C(=O)[C@@]2(CCN(CC3(CC#N)CC3)C2)c2c1cnc1[nH]c(-c3cnn(C)c3)c(-c3ccc4c(cnn4C)c3)c21` (single isomer, unassigned) [Example 66], the IC50 [1] is reported as at most 100 nM, the IC50 [2] is reported as at most 100 nM and the IC50 [3] is reported as 500 to 1250 nM. It also gave an IC50 [4] of 500 to 1250 nM.
With `CN1C(=O)C2(CCN(c3ccncn3)CC2)c2c1cnc1[nH]c(-c3ccc(CN4CCC(S(C)(=O)=O)CC4)cc3)c(-c3ccccc3)c21` [Example 15, 6-Methyl-2-(4-((4-(methylsulfonyl)piperidin-1-yl)methyl)phenyl)-1-phenyl-1′-(pyrimidin-4-yl)-3,6-dihydro-7H-spiro[dipyrrolo[2,3-b:3′,2′-d]pyridine-8,4′-piperidin]-7-one, trifluoroacetate salt] the IC50 [1] was at most 100 nM, the IC50 [2] was at most 100 nM and the IC50 [3] was over 2500 nM. The IC50 [4] was over 2500 nM.
With `CN(C)C(=O)N1CCC2(CC1)CC1(C2)C(=O)N(C)c2cnc3[nH]c(-c4cnn(C)c4)c(-c4ccc5c(cnn5C)c4)c3c21` [Example 60, N,N,6-Trimethyl-1-(1-methyl-1H-indazol-5-yl)-2-(1-methyl-1H-pyrazol-4-yl)-7-oxo-6,7-dihydro-3H-dispiro[dipyrrolo[2,3-b:3′,2′-d]pyridine-8,1′-cyclobutane-3′,4″-piperidine]-1″-carboxamide, trifluoroacetate salt] the IC50 [1] was at most 100 nM, the IC50 [2] was at most 100 nM and the IC50 [3] was 1250 to 2500 nM. The IC50 [4] was 1250 to 2500 nM.
For `CCS(=O)(=O)N1CC2(C1)CC1(C2)C(=O)N(C)c2cnc3[nH]c(-c4cnn(C5CCCC5)c4)c(-c4ccc5c(cnn5C)c4)c3c21` [Example 90, 2″-(1-Cyclopentyl-1H-pyrazol-4-yl)-1-(ethylsulfonyl)-6″-methyl-1″-(1-methyl-1H-indazol-5-yl)-3″,6″-dihydro-7″H-dispiro[azetidine-3,1′-cyclobutane-3′,8″-dipyrrolo[2,3-b:3′,2′-d]pyridin]-7″-one, trifluoroacetate salt], the IC50 [1] was at most 100 nM, the IC50 [2] was at most 100 nM and the IC50 [3] was 1250 to 2500 nM. For the same compound, the IC50 [4] was 1250 to 2500 nM.
`CC(=O)N1C2CCC1CC1(C2)C(=O)N(C)c2cnc3[nH]c(-c4ccc(CN5CCC(S(C)(=O)=O)CC5)cc4)c(-c4ccccc4)c3c21` (stereo not drawn) [Example 13, 8-Acetyl-6′-methyl-2′-((4(4-(methylsulfonyl)piperidin-1-yl)methyl)phenyl)-1′-phenyl-3′,6′-dihydro-7′H-8-azaspiro[bicyclo[3.2.1]octane-3,8′-dipyrrolo[2,3-b:3′,2′-d]pyridin]-7′-one trifluoroacetate salt] gave an IC50 [1] of at most 100 nM, an IC50 [2] of 100 to 500 nM and an IC50 [3] of 1250 to 2500 nM. The IC50 [4] was 1250 to 2500 nM.
`O=C(O)C(F)(F)F.[2H]C([2H])([2H])n1ccc2cc(-c3c(-c4cnn(CCOC)c4)[nH]c4ncc5c(c34)C3(CCN(C4(CC#N)CCC4)CC3)C(=O)N5C)ccc21` [Example 46, 2-(1-(2-(1-(2-Methoxyethyl)-1H-pyrazol-4-yl)-6-methyl-1-(1-(methyl-d3)-1H-indol-5-yl)-7-oxo-6,7-dihydro-3H-spiro[dipyrrolo[2,3-b:3′,2′-d]pyridine-8,4′-piperidin]-1′-yl)cyclobutyl)acetonitrile, trifluoroacetate salt] was tested, and the IC50 [1] was at most 100 nM, the IC50 [2] was at most 100 nM and the IC50 [3] was 500 to 1250 nM. For the same compound, the IC50 [4] was 500 to 1250 nM.
Work on `CCS(=O)(=O)c1ccc(-c2[nH]c3ncc4c(c3c2-c2ccc3c(cnn3C)c2)C2(CCN(C3(CC#N)CCC3)CC2)C(=O)N4C)cc1` [Example 35, 2-(1-(2-(4-(Ethylsulfonyl)phenyl)-6-methyl-1-(1-methyl-1H-indazol-5-yl)-7-oxo-6,7-dihydro-3H-spiro[dipyrrolo[2,3-b:3′,2′-d]pyridine-8,4′-piperidin]-1′-yl)cyclobutyl)acetonitrile, trifluoroacetate salt] yielded an IC50 [1] of at most 100 nM, an IC50 [2] of at most 100 nM and an IC50 [3] of 500 to 1250 nM. The IC50 [4] was 500 to 1250 nM.
In the case of `CCS(=O)(=O)N1CC2(C1)CC1(C2)C(=O)N(C)c2cnc3[nH]c(-c4cnn(CCOC)c4)c(-c4ccc5c(cnn5C)c4)c3c21` [Example 88, 1-(Ethylsulfonyl)-2″-(1-(2-methoxyethyl)-1H-pyrazol-4-yl)-6″-methyl-1″-(1-methyl-1H-indazol-5-yl)-3″,6″-dihydro-7″H-dispiro[azetidine-3,1′-cyclobutane-3′,8″-dipyrrolo[2,3-b:3′,2′-d]pyridin]-7″-one, trifluoroacetate salt], the IC50 [1] is reported as at most 100 nM, the IC50 [2] is reported as at most 100 nM and the IC50 [3] is reported as 1250 to 2500 nM. It also gave an IC50 [4] of 1250 to 2500 nM.
Work on `C=Cc1c(-c2cnn(C)c2)[nH]c2ncc3c(c12)C1(CCN(c2ccncn2)CC1)C(=O)N3C` [Example 18, 6-Methyl-2-(1-methyl-1H-pyrazol-4-yl)-1′-(pyrimidin-4-yl)-1-vinyl-3,6-dihydro-7H-spiro[dipyrrolo[2,3-b:3′,2′-d]pyridine-8,4′-piperidin]-7-one, trifluoroacetate salt] yielded an IC50 [1] of 500 to 1250 nM, an IC50 [2] of 1250 to 2500 nM and an IC50 [3] of over 2500 nM. The IC50 [4] was over 2500 nM.
For `CN1C(=O)C2(CCN(CC3(CC#N)CC3)C2)c2c1cnc1[nH]c(-c3cnn(Cc4ccc(C#N)cc4)c3)c(-c3ccc4c(cnn4C)c3)c21` (racemic) [Example 69, 4-((4-(1′-((1-(Cyanomethyl)cyclopropyl)methyl)-6-methyl-1-(1-methyl-1H-indazol-5-yl)-7-oxo-6,7-dihydro-3H-spiro[dipyrrolo[2,3-b:3′,2′-d]pyridine-8,3′-pyrrolidin]-2-yl)-1H-pyrazol-1-yl)methyl)benzonitrile, trifluoroacetate salt], the IC50 [1] was at most 100 nM, the IC50 [2] was at most 100 nM and the IC50 [3] was 500 to 1250 nM. For the same compound, the IC50 [4] was 500 to 1250 nM.
